Molecules are shown by their SMILES.

The text below walks through data of PMC10179937, “Cytotoxic Activity, Topoisomerase I Inhibition and In Silico Studies of New Sesquiterpene-aryl Ester Derivatives of (-) Drimenol” (Molecules, 2023).

Assay [1] concerns MCF-7 (breast adenocarcinoma). Kind of assay: Sulforhodamine B in vitro growth inhibition assay, MCF-7. Type of assay: cell-based, human. As to conditions: for IC50: Homo sapiens, MCF7, sulforhodamine B assay, 72 h of treatment, IC50 ± SD; for Selectivity Index (SI) MCF-10/MCF-7: IC50 in non-cancerogenic cell line / IC50 in cancer cell line. As to the method:
(§1) For this purpose, a colorimetric sulforhodamine B assay was performed to quantify the cytotoxic effect through their respective IC50 values. Each compound’s serial dilutions (12.5, 25, 50, and 100 µM) were evaluated in triplicate. In our study, the human cancer cell lines used were MCF-7 (breast adenocarcinoma); HT-29 (colorectal adenocarcinoma); PC-3 (prostate adenocarcinoma); and MCF-10 control cells (normal breast epithelium). For comparative purposes, the literature IC50 values of daunorubicin and 5-fluorouracil (5-FU), measured in the same cell lines and under the same experimental conditions, were included. Similarly, drimenol (1) was included for comparative purposes.
(§2) The sulforhodamine B assay was used. Briefly, the cells were set up at 5 × 10^3 cells per well of a 96-well microplate for 18 h. Cells were incubated at 37 °C in a humidified 5% CO2/95% air mixture and treated with the compounds at different concentrations for 72 h. At the end of drug exposure, cells were fixed with 50% trichloroacetic acid at 4 °C. After washing with distilled water, cells were stained with 0.1% sulforhodamine B, dissolved in 1% acetic acid (50 μL/well) for 30 min, and, subsequently, washed with 1% acetic acid to remove the unbound stain. The protein-bound stain was solubilized with 100 μL of 10 mM unbuffered Tris base, and the cell density was determined using a […] (wavelength 540 nm). Results are expressed as IC50 values (μM) ± SD.
For orientation: Sulforhodamine B stains cellular protein and so reports cell mass.

In assay [2] the test system is MCF-10 control cells (normal breast epithelium). The assay is described as follows: Sulforhodamine B in vitro growth inhibition assay, MCF-10 control cells. The format is cell-based. To be noted: Homo sapiens, MCF10, 72 h of treatment, IC50 ± SD, non-tumoral cells. Here is the method: as §1, §2
Assay [3] relates to HT-29 (colorectal adenocarcinoma). Kind of assay: Sulforhodamine B in vitro growth inhibition assay, HT-29. The format is cell-based, human. As to conditions: for IC50: Homo sapiens, HT-29, sulforhodamine B assay, 72 h of treatment, IC50 ± SD; for Selectivity Index (SI) MCF-10/HT-29: IC50 in non-cancerogenic cell line / IC50 in cancer cell line. As to the method: as §1, §2
The subject of assay [4] is PC-3 (prostate adenocarcinoma). Kind of assay: Sulforhodamine B in vitro growth inhibition assay, PC-3. The format is cell-based, human. To be noted: for IC50: Homo sapiens, sulforhodamine B assay, 72 h of treatment, IC50 ± SD; for Selectivity Index (SI) MCF-10/PC-3: IC50 in non-cancerogenic cell line / IC50 in cancer cell line. As to the method: as §1, §2
Assay [5] deals with caspases 3 and 7 on MCF-7 cells. Kind of assay: Caspase-Glo 3/7 assay. The format is cell-based, human. As to conditions: 50 μM, 24 h. Here is the method:
To determine the cell death type induced by the most promising aryl-drimane esters, we evaluated their capacity to induce apoptosis through the activation of caspases 3 and 7 on MCF-7 cells. For this purpose, 6a, 6e, 6f, 8c, 8f, and 8g were incubated for 24 h on MCF-7 cells at a concentration of 50 μM, close to the IC50 values for cytotoxicity in most compounds. […] In summary, these drimane derivatives induced apoptosis in the MCF-7 cell line, showing a potential antitumoral effect.
The activity of caspase 3/7 in treated MCF-7 cells was determined using a Caspase-Glo-3/7 Assay kit (Promega, UK—Cat. No G8090). The caspase-Glo 3/7 assay is a homogenous, luminescent assay that measures caspase-3 and -7 activities, both key-players in apoptosis. […] Luminescence was proportional to the amount of caspase present. MCF-7 cells (1 × 10^4 cells per well) were grown in a 96-well white plate and were allowed to adhere overnight. The cells were then treated for 24 h with the synthesized compounds (50 µM), with the inclusion of a blank as a control. After treatment, the Caspase-Glo® 3/7 was prepared according to the manufacturer’s guidelines. Briefly, 100 μL of Caspase-Glo 3/7 reagent was added to 100 μL of culture medium containing the cells previously treated in each well. The content was mixed gently by placing the plate on a shaker for 30 s, and the plate was incubated at room temperature in the dark for 1 h before luminescence was read on a luminometer (Berthold Sirius Single Tube Luminometer, Pforzheim, Germany). Fold change in caspase activity was obtained by first subtracting the luminescence value for the blank well from every other value, and then, expressing the average luminescence of each treatment as a fold change with respect to the average luminescence of the negative control.

As a reminder, the IC50 is the concentration at which inhibition is half-maximal. Read a high IC50 as lower potency. As for `COc1cc(OC)cc(C(=O)OC[C@H]2C(C)=CCC3C(C)(C)CCC[C@@]32C)c1` (stereo partly drawn) [8a, ((1S,8aS)-2,5,5,8a-tetramethyl-1,4,4a,5,6,7,8,8a-octahydronaphthalen-1-yl)methyl-3,5-dimethoxybenzoate], the IC50 was > 100 µM in assay [1], 44.8 ± 3.1 µM in assay [2], > 100 µM in assay [3] and > 100 µM in assay [4].

Consider `COc1cc(C=O)ccc1OC(=O)C1=C(C)CCC2C(C)(C)CCC[C@]12C` (stereo partly drawn) [6f, 4-Formyl-2-methoxyphenyl-(8aS)-2,5,5,8a-tetramethyl-3,4,4a,5,6,7,8,8a-octahydronaphthalene-1-carboxylate], for which the “caspases-3/7 activity over the control” value in assay [5] was “two-fold”. Further, in assay [1], the midpoint of inhibition, the IC50, lay at 22.4 ± 1 µM and the “Selectivity Index (SI) MCF-10/MCF-7” value is 0.7. Further, the IC50 in assay [2] is 16.5 ± 0.9 µM. Besides, in assay [3], the midpoint of inhibition, the IC50, lay at 58 ± 3.9 µM and the “Selectivity Index (SI) MCF-10/HT-29” value is listed as 0.3. Also, in assay [4], inhibition was half-maximal at 30.9 ± 2.5 µM (IC50) and the “Selectivity Index (SI) MCF-10/PC-3” value turned out to be 0.5.

Turning to `COc1cc(OC(=O)C2=C(C)CCC3C(C)(C)CCC[C@]23C)ccc1C=O` (stereo partly drawn) [6e, 4-Formyl-3-methoxyphenyl-(8aS)-2,5,5,8a-tetramethyl-3,4,4a,5,6,7,8,8a-octahydronaphthalene-1-carboxylate], the “caspases-3/7 activity over the control” value in assay [5] was “two-fold”. Moreover, in assay [1], the half-inhibitory concentration (IC50) is 38.3 ± 2.6 µM and the “Selectivity Index (SI) MCF-10/MCF-7” value is reported as 1.3. In assay [2], this compound gave a concentration for half-maximal inhibition (IC50) of 50 ± 8.9 µM. Moreover, in assay [3], the IC50 turned out to be 38.1 ± 2 µM and the “Selectivity Index (SI) MCF-10/HT-29” value is 1.3. Further, in assay [4], the IC50 is 52.9 ± 8.2 µM and the “Selectivity Index (SI) MCF-10/PC-3” value was found to be 0.9.

With `COc1cc(OC)c(C(=O)OC[C@H]2C(C)=CCC3C(C)(C)CCC[C@@]32C)cc1OC` (stereo partly drawn) [8g, ((1S,8aS)-2,5,5,8a-tetramethyl-1,4,4a,5,6,7,8,8a-octahydronaphthalen-1-yl)methyl-2,4,5-trimethoxybenzoate], the “caspases-3/7 activity over the control” value in assay [5] was 3.5 fold. In assay [1], the IC50 was found to be 28.7 ± 3.5 µM and the “Selectivity Index (SI) MCF-10/MCF-7” value was 0.6. The same compound came in with a concentration for half-maximal inhibition (IC50) in assay [2] of 16.3 ± 0.6 µM. Also, in assay [3], the IC50 was 31.3 ± 2 µM and the “Selectivity Index (SI) MCF-10/HT-29” value was 0.5. In assay [4], the IC50 worked out at 27.7 ± 2.6 µM and the “Selectivity Index (SI) MCF-10/PC-3” value is 0.6.

As for `COc1cc(C(=O)OC[C@H]2C(C)=CCC3C(C)(C)CCC[C@@]32C)cc(OC)c1C` (stereo partly drawn) [8b, ((1S,8aS)-2,5,5,8a-tetramethyl-1,4,4a,5,6,7,8,8a-octahydronaphthalen-1-yl)methyl 3,5-dimethoxy-4-methylbenzoate], the half-maximal inhibitory concentration (IC50) is > 100 µM in assay [1], 21.2 ± 3.1 µM in assay [2], > 100 µM in assay [3] and > 100 µM in assay [4].

`COc1cc(C(=O)OC[C@H]2C(C)=CCC3C(C)(C)CCC[C@@]32C)cc(OC)c1OC` (stereo partly drawn) [8e, ((1S,8aS)-2,5,5,8a-tetramethyl-1,4,4a,5,6,7,8,8a-octahydronaphthalen-1-yl)methyl-3,4,5-trimethoxybenzoate]: in assay [1], half-maximal inhibition (IC50) was put at 51 ± 10 µM and the “Selectivity Index (SI) MCF-10/MCF-7” value is given as 0.6. The compound also registered a concentration for half-maximal inhibition (IC50) in assay [2] of 32.1 ± 8.3 µM. In addition, in assay [3], inhibition was half-maximal at 51.5 ± 3.2 µM (IC50) and the “Selectivity Index (SI) MCF-10/HT-29” value was found to be 0.6. Moreover, in assay [4], inhibition was half-maximal at 76.9 ± 10.2 µM (IC50) and the “Selectivity Index (SI) MCF-10/PC-3” value was determined as 0.4.

Turning to `COc1cc(C)cc(OC(=O)C2=C(C)CCC3C(C)(C)CCC[C@]23C)c1` (stereo partly drawn) [6b, 3-Methoxy-5-methylphenyl-(8aS)-2,5,5,8a-tetramethyl-3,4,4a,5,6,7,8,8a-octahydronaphthalene-1-carboxylate], the IC50 in assay [1] is > 100 µM; in assay [2] it was 67.2 ± 15.3 µM; in assay [3], > 100 µM; in assay [4], > 100 µM.

Consider `CC1=CCC2C(C)(C)CCC[C@]2(C)[C@H]1COC(=O)c1cc(O)c(C)c(O)c1` (stereo partly drawn) [8c, ((1S,8aS)-2,5,5,8a-tetramethyl-1,4,4a,5,6,7,8,8a-octahydronaphthalen-1-yl)methyl-3,5-dihydroxy-4-methylbenzoate], for which, in assay [5], the “caspases-3/7 activity over the control” value is listed as “two-fold”. Further, the IC50 in assay [1] is 35.9 ± 6.4 µM; in assay [2], > 100 µM; in assay [3] it was > 100 µM; in assay [4], > 100 µM.
